Test results taken from patent publication US20070190554A1, “Novel binding site for retigabine on KCNQ5” (priority 2006, published 2007).
Entries after “also recorded” stand apart in the source; their conditions may differ. Like-named read-outs stand apart in the source and are kept apart here.

Key:
Wild type KCNQ5 = Wild type KCNQ5 (Homo sapiens, UniProt Q9NR82); settings: cited from earlier work
KCNQ1(L171W) = biological target: T1, KCNQ1(L171W) (Homo sapiens, UniProt P51787, L266W); test: Two-electrode voltage clamp in Xenopus oocytes, KCNQ1(L171W)
T1 sequence (P51787 with tags, fused parts or gaps L266W): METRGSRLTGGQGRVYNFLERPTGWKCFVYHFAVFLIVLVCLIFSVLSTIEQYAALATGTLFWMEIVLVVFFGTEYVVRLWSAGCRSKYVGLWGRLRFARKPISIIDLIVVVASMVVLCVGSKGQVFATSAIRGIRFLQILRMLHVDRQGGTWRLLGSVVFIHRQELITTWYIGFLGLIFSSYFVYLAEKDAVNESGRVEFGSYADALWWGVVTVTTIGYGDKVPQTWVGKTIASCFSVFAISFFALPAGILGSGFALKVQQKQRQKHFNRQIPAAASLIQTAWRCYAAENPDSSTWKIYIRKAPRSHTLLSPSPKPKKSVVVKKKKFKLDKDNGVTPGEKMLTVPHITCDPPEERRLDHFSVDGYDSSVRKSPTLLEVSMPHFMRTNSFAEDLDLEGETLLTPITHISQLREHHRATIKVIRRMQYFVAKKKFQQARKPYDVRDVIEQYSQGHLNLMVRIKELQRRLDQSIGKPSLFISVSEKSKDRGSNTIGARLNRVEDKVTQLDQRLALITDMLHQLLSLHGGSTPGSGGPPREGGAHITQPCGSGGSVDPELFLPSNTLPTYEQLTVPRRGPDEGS

KCNQ5(A269T) = biological target: T2, KCNQ5(A269T) (Homo sapiens, UniProt Q9NR82, A269T); test: Two-electrode voltage clamp in Xenopus oocytes, S5 point mutant KCNQ5(A269T); assay type: cell-based; settings: 50 μM retigabine; FIG. 3 bottom panel
T2 construct: mutations in KCNQ5 were generated for each of 7 residues modified individually to the corresponding in KCNQ1; expressed in transfected cells; host or cells: Xenopus oocytes injected with cRNA
Method: (§1) FIG. 3 Mutagenesis analysis of S5 domain in KCNQ5. Sequence alignment of all five members in KCNQ family is shown on the top. The most diverse residues between KCNQ1 and the other members are highlighted in bold case and the corresponding residues in KCNQ5 were individually mutated to their counterparts in KCNQ1. Then each mutant with single mutation was tested with 50 μM retigabine and the fold increase (IΔ/I0) in current amplitude was plotted in the graph on bottom. In all mutants, n equals 6.
(§2) The gene sequences were confirmed by DNA sequencing. […] Electrophysiological recording was performed 3-7 days after injection.
(§3) The S5 domains of all five KCNQ members were sequence aligned and searched for unique amino acid residues that might account for the lack of KCNQ1's response to retigabine. As shown in FIG. 3 upper panel, there are ten unmatched residues between KCNQ1 and KCNQ5. Seven of them highlighted in FIG. 3 may be unique for KCNQ1. Therefore, mutations in KCNQ5 were generated for each of 7 residues modified individually to the corresponding in KCNQ1. One mutant, KCNQ5(F282Y) lost its functionality when expressed in oocytes. […] Retigabine's effect on each of these mutants was then tested.

[1] = biological target: KCNQ5 containing an S5 transmembrane domain from KCNQ1 (Homo sapiens, UniProt Q9NR82, A261I/A269T/F282Y/K264Q/L283F/S263R/V276G/V287A/W270L/Y260F); settings: 50 μM retigabine
Method: Expression of KCNQ5 and KCNQ1 channels into Xenopus oocytes—Human KCNQ5 and KCNQ1 genes were cloned into a pKSM vector that has been engineered specifically for oocyte expression. […] Xenopus oocytes were injected with 46 nl solution containing approximately 9.2 ng cRNA using a Drumond Nanojet oocyte injector (Drummond Scientific Co., Broomall, Pa.). Electrophysiological recording was performed 3-7 days after injection.
Electrophysiology—All experiments were performed at room temperature (22-23° C.) using conventional oocyte two-electrode voltage clamp recording (TEVC). The recording electrodes were pulled from 1.5 mm glass pipette using a Sutter P-97 micropipette puller (Sutter Instrument, Novato, Calif.) and filled with 3M KCl. The pipette tip was carefully broken off to acquire the electrode resistance at 0.5-1 Mohm. A Dagan CA-1 amplifier (Dagan Corporation, Minneapolis Minn.) was used and the holding potential was clamped at −100 mV. To test voltage dependence of channel activation, a series of depolarized voltage pulses was applied. To observe the time course of retigabine's effect, a single (3 sec) voltage pulse at 40 mV was applied repeatedly at 15 sec intervals. A HEKA computer interface (HEKA Elektronik, Lambrecht, Germany) with Pulse 8.5 software was used to control the amplifier and digitized the data for analysis. Solutions and Chemicals—ND96 solution containing (in mM) NaCl, 96, KCl, 2, CaCl2, 1.8, MgCl2, 1, HEPES, 10 was used for oocyte incubation and recording. Retigabine was made as a stock solution in DMSO at 50 mM and diluted into desired concentrations just before application in experiments. […] In all experiments, DMSO was used less than 0.4%.
Compounds were applied to the cells via a fast bath perfusion system (ALA Scientific Instruments, Westbury, N.Y.), and a bath solution change was completed within 10 seconds.
Data analysis—Current amplitude was measured online using HEKA Pulsefit 8.5 software. To acquire channel conductance from macroscopic current, the K^+ reversal potential was approximated to be −80 mV in ND96 solution and the following equation was applied: G=I/(V+80), where G is the whole oocyte conductance, I is the whole oocyte current, and V is the voltage used to induce the current. Data were expressed as mean±SE, and the paired student t test was performed. Differences were considered to be significant at P<0.05.
To further dissect the action site of retigabine, the S5-S6 transmembrane domain from KCNQ1 was divided into two parts, the S5 transmembrane domain and the S6 transmembrane domain (with linker), and the corresponding chimeric channels of KCNQ5 contained S5 transmembrane domain or S6 transmembrane domain from KCNQ1.

mouse KCNQ5 polypeptide = mouse KCNQ5 polypeptide (Mus musculus, UniProt Q9JK45); settings: Jensen et al. 2005; cited from earlier work
rat KCNQ5 polypeptide = rat KCNQ5 polypeptide (Rattus norvegicus, UniProt F1LY25); settings: Jensen et al. 2005; cited from earlier work
KCNQ1 wild-type = KCNQ1 wild-type (Homo sapiens, UniProt P51787); settings: FIG. 4A
Excerpt: The steady state amplitudes of the currents evoked by a series of depolarized voltage pulses from −100 to 80 mV in 10 mV increment were normalized to the level evoked by the membrane potential of 80 mV in the control group. The holding potential was −100 mV.
Expression of KCNQ5 and KCNQ1 channels into Xenopus oocytes—Human KCNQ5 and KCNQ1 genes were cloned into a pKSM vector that has been engineered specifically for oocyte expression. The gene sequences were confirmed by DNA sequencing. […] The constructs were linearized by XbaI restriction enzyme (NEB, Beverly, Mass.). In vitro transcription was performed with an mMESSAGE mMACHINE® kit (Ambion, Austin, Tex.) and the cRNA was purified by phenol extraction. Xenopus oocytes were injected with 46 nl solution containing approximately 9.2 ng cRNA using a Drumond Nanojet oocyte injector (Drummond Scientific Co., Broomall, Pa.). Electrophysiological recording was performed 3-7 days after injection.
Electrophysiology—All experiments were performed at room temperature (22-23° C.) using conventional oocyte two-electrode voltage clamp recording (TEVC). […]
Data analysis—Current amplitude was measured online using HEKA Pulsefit 8.5 software. […] Data were expressed as mean±SE, and the paired student t test was performed. […]

KCNQ5(W270L) = biological target: T3, KCNQ5(W270L) (Homo sapiens, UniProt Q9NR82, W270L); test: Two-electrode voltage clamp in Xenopus oocytes, S5 point mutant KCNQ5(W270L); assay type: cell-based; settings: 50 μM retigabine; FIG. 3 bottom panel
T3 construct: expressed in transfected cells; host or cells: Xenopus oocytes injected with cRNA
Method: as §1, §2, §3

KCNQ1 = KCNQ1 (Homo sapiens, UniProt P51787); settings: background statement; cited from earlier work
[2] = biological target: KCNQ5 containing an S5-S6 transmembrane domain from KCNQ1 (Homo sapiens, UniProt Q9NR82, A261I/A269T/A329S/A332S/F282Y/G330C/G335A/I307V/INS291VNESG/K264Q/K293V/L283F/L309V/L320Q/L323V/L326T/L327I/L333V/L334F/N292R/R325K/S263R/S296G/S328A/T297S/T306V/T318V/V276G/V287A/W270L/Y260F); settings: 50 μM retigabine
Excerpt: Differences were considered to be significant at P<0.05.
All mutations were confirmed by DNA sequencing.

Sequence of KCNQ5 containing an S5-S6 transmembrane domain from KCNQ1 (Q9NR82 other isoform, or with tags, fused parts or gaps with the stated changes): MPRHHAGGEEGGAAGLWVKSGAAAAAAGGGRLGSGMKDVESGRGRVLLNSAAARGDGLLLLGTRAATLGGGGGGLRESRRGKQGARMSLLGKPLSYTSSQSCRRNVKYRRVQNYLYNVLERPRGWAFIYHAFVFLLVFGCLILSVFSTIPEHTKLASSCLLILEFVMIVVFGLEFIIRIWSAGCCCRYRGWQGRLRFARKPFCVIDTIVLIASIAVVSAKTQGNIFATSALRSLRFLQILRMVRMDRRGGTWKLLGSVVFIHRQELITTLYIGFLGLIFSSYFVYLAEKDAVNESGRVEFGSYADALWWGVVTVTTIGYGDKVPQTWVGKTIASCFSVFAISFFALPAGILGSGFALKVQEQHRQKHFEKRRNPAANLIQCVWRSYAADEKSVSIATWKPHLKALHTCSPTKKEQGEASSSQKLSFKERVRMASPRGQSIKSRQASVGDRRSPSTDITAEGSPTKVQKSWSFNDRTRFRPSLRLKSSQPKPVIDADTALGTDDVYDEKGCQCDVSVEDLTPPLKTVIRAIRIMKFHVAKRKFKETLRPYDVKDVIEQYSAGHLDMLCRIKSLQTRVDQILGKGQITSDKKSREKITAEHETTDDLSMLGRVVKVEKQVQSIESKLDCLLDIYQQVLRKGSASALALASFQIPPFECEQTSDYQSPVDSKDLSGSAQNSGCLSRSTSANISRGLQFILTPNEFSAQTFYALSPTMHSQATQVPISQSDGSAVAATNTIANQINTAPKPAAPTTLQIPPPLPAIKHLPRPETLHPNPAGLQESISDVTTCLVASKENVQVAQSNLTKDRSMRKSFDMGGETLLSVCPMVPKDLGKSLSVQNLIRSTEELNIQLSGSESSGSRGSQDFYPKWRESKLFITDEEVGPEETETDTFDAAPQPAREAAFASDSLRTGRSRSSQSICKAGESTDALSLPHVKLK
Sequence of KCNQ5 containing an S5 transmembrane domain from KCNQ1 (Q9NR82 whole entry Y260F/A261I/S263R/K264Q/A269T/W270L/V276G/F282Y/L283F/V287A, the tested form may be a part): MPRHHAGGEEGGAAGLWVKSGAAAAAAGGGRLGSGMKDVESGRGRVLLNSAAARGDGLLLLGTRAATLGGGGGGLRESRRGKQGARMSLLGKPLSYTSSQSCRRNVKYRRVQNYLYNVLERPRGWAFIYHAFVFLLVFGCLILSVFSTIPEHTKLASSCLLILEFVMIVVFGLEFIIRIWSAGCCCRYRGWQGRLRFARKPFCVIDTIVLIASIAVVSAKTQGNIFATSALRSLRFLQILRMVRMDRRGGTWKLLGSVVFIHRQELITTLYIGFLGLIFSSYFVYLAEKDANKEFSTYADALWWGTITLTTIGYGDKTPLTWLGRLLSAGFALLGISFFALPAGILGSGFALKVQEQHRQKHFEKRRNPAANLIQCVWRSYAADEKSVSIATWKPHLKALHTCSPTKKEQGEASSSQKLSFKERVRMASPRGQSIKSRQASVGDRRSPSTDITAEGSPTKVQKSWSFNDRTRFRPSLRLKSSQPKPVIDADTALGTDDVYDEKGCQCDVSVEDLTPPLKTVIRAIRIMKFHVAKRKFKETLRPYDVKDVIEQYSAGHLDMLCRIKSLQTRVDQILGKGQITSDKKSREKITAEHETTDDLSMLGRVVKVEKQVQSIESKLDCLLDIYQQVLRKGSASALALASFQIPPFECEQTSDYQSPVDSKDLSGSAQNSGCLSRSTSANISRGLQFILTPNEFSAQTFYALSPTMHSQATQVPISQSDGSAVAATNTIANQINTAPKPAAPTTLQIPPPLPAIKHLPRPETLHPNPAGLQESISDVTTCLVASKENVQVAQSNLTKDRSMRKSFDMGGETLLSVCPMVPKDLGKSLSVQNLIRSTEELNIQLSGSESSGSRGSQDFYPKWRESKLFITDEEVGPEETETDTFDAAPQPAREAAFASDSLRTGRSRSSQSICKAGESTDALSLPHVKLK
Sequence of Wild type KCNQ5 (Q9NR82 whole entry): as the sequence (Q9NR82 whole entry Y260F/A261I/S263R/K264Q/A269T/W270L/V276G/F282Y/L283F/V287A, the tested form may be a part) above, with F260Y, I261A, R263S, Q264K, T269A, L270W, G276V, Y282F, F283L, A287V counted along it
T3 sequence (Q9NR82 whole entry W270L): as the sequence (Q9NR82 whole entry Y260F/A261I/S263R/K264Q/A269T/W270L/V276G/F282Y/L283F/V287A, the tested form may be a part) above, with F260Y, I261A, R263S, Q264K, T269A, G276V, Y282F, F283L, A287V counted along it
Sequence of mouse KCNQ5 polypeptide (Q9JK45 whole entry): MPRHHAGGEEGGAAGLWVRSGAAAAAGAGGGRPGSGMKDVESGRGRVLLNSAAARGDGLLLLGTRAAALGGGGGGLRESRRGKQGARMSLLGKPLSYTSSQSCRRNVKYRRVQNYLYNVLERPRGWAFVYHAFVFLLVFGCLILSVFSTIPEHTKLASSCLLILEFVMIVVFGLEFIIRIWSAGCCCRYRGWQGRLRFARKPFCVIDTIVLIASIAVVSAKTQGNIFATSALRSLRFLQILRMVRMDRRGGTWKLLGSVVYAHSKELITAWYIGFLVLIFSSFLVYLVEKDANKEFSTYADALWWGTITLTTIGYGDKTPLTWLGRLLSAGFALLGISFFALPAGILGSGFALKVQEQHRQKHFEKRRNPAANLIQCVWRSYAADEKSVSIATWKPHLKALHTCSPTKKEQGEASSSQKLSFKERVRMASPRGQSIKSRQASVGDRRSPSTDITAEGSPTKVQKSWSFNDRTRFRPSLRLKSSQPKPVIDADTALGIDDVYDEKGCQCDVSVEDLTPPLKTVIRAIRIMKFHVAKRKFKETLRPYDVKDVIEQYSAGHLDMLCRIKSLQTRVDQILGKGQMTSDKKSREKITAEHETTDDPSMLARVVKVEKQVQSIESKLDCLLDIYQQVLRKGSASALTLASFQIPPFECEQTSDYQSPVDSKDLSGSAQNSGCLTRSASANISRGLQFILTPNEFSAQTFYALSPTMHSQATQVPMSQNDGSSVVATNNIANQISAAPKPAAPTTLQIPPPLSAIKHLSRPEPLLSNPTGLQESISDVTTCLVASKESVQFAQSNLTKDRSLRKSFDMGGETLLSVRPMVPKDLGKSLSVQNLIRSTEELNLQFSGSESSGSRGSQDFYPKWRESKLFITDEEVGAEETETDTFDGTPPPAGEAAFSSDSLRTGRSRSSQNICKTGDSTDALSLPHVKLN
Sequence of rat KCNQ5 polypeptide (F1LY25 1-951): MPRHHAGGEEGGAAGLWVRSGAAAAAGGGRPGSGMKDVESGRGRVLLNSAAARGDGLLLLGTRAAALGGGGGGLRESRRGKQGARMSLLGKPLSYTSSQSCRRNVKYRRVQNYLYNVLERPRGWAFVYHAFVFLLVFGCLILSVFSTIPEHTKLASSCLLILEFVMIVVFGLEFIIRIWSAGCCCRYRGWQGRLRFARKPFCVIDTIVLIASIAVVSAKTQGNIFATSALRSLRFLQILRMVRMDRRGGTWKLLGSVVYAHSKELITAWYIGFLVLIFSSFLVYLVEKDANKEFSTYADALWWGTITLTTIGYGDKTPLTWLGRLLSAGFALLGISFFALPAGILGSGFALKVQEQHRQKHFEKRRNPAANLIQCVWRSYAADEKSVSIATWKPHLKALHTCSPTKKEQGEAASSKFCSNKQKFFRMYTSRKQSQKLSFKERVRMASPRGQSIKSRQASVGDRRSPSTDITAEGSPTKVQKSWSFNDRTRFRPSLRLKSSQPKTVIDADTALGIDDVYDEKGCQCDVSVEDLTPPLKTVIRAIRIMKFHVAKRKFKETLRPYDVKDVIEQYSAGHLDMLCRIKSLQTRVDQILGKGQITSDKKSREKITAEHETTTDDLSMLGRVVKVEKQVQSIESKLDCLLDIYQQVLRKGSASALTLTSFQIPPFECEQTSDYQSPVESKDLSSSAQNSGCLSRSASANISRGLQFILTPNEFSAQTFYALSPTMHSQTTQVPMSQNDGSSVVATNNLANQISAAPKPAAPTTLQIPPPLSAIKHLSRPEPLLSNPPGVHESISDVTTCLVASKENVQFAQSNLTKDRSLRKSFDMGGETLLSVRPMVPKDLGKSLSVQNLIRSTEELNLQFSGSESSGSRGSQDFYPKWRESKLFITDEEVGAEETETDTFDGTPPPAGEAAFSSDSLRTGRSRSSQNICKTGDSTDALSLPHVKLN
T2 sequence (Q9NR82 whole entry A269T): as the sequence (Q9NR82 whole entry Y260F/A261I/S263R/K264Q/A269T/W270L/V276G/F282Y/L283F/V287A, the tested form may be a part) above, with F260Y, I261A, R263S, Q264K, L270W, G276V, Y282F, F283L, A287V counted along it

For `CCOC(=O)Nc1ccc(NCc2ccc(F)cc2)cc1N` [retigabine, N-(2-amino-4-(4-fluorobenzylamino)-phenyl)carbamic acid ethyl ester], the “responsiveness of the channel to retigabine” value (Wild type KCNQ5; Wickendon et al. 2001) is given as “responsive”, the “opening of KCNQ channels” value (Wild type KCNQ5; background statement) is given as “open” and the “steady state current amplitude” value (KCNQ1(L171W); 50 μM retigabine, FIG. 4B) is given as “clearly reduced”. For the same compound, the “voltage dependence of channel activation” value (KCNQ1(L171W); FIG. 4D and inset (200 μM)) was “modified the voltage dependence of channel activation”, the “activation kinetics of the current” value (KCNQ1(L171W); current evoked at 80 mV, FIG. 4C) was “from a single to a double exponential activation time course” and the “kind of effect on the channel (activated or blocked)” value (KCNQ1(L171W); oocytes, TEVC) was “blocked”. The inhibition at 200 µM (KCNQ1(L171W); read-out: inhibition of the steady-state current) was 62.5%, the “response to retigabine (fold increase IΔ/I0 in current amplitude)” value (KCNQ5(A269T)) was “significantly less response” and the “channel current induced by depolarization to 40 mV” value ([1]; 5 min of bath application) was “remained unchanged”. For the same compound, the “current amplitude and voltage dependence of the currents (I-V curves before and after treatment)” value ([1]; FIG. 2A right panel, FIG. 2C) was “Neither current amplitude nor voltage dependence of the currents was modified”, the “effect on the mutant channel” value ([1]; FIG. 2B) was “no longer had effect” and the “current (I)-voltage relationship in the absence vs presence of retigabine” value ([1]; p>0.05) was “No significant difference”. For the same compound, the “sensitivity of the channel to retigabine” value (mouse KCNQ5 polypeptide) was “sensitive”, the “sensitivity of the channel to retigabine” value (rat KCNQ5 polypeptide) was “sensitive” and the “response of channel current” value (KCNQ1 wild-type; 50 μM retigabine) was “no significant response”. For the same compound, the “response of channel current” value (KCNQ1 wild-type; 200 μM retigabine) was “slightly inhibitory response”, the “response to retigabine (fold increase IΔ/I0 in current amplitude)” value (KCNQ5(W270L)) was “significantly less response; also recorded: completely lost the response” and the “enhancing effect on the channel” value (KCNQ1) was “no enhancing effect”. The “current (I)-voltage relationship in the absence vs presence of retigabine” value ([2]; 5 min after the application, p>0.05) was “No significant difference”, the “change of current amplitude and voltage dependent activation” value ([2]; 5 min application period, FIG. 1C) was “neither current amplitude nor voltage dependent activation changed significantly” and the “effect on channel activities” value ([2]; oocytes, FIGS. 1A and 1B) was “no longer augmented the channel activities”.
